Results taken from patent US20240180915A1, “OIL-IN-WATER EMULSION OF 6-ETHOXY-7-METHOXY-2-(2-[…])-3,L-BENZOXAZIN-4-ONE” (SIXERA PHARMA AB, priority 2021, published 2024).

Tests used:
[1] = Solubility of the active in water and organic solvents (statement); format: physicochemical
Excerpt: However, such organic solvents are unsuitable for use in topical formulations for treatment of skin disease.

[2] = Initial formulation attempts with common solvents and excipients: crystal formation upon storage; format: physicochemical; details: common pharmaceutically acceptable solvents and excipients
Excerpt: Accordingly, further development was needed to arrive at a stable topical formulation where crystal formation of 6-ethoxy-7-methoxy-2-(2-methylsulfanylphenyl)-3,1-benzoxazin-4-one can be avoided.

CCOc1cc2c(=O)oc(-c3ccccc3SC)nc2cc1OC [6-Ethoxy-7-methoxy-2-(2-methylsulfanylphenyl)-3,1-benzoxazin-4-one]
Solubility in organic solvents ([1]; various organic solvents): can be dissolved in various organic solvents
Solubility in water ([1]; water): low solubility in water
Crystal formation upon storage of the formulation [2]: form needle shaped crystals upon storage of the formulation
